Patent US9950044B2, “Treatment of pulmonary vascular remodeling with neprilysin” (THE REGENTS OF THE UNIVERSITY OF COLORADO, A BODY CORPORATE, priority 2010, dated 2018)

How the values were obtained:
recombinant human NEP = recombinant human NEP (Homo sapiens, UniProt P08473); assay: biochemical; details: read-out: inhibition of residual rNEP activity
Procedure: (§1) Lung samples ([…]) or PA SMCs were homogenized in 0.5 ml 20 mM MES, pH 6.5, containing protease inhibitors, and for PA SMCs, 0.5% CHAPS. After centrifugation (10,000×g, 10 min), supernatant was stored at −80° C. NEP activity was measured as described (Dempsey et al., 2009). DPPIV activity was measured by DPPIV-Glo Protease Assay (Promega). Western analyses (Dempsey et al., 2009) with anti-human NEP (56C6, Neomarkers) were assessed by densitometry.

[1] = molecular target: NEP activity in ‘Control’ human lung homogenates (Homo sapiens, UniProt P08473); assay: biochemical; details: read-out: inhibition of NEP activity in ‘Control’ crude lung homogenates
Procedure: as §1

[2] = tested on: NEP mRNA in human PA SMCs; assay: NEP mRNA levels in human PA SMCs (qRT-PCR); assay type: cell-based
Procedure: (§2) PA SMCs were isolated from the main PA of ‘normal’ human tissue donors (Clonetics®, Basel, Switzerland, α-SM actin positive, Factor VIII negative). Passages 6-10 were maintained in SmBM® (5% FBS), at 37° C., and used for experimentation. […] The antioxidants Tiron (2.5 mM; Sigma) (Taiwo, 2008), MnTMPyp (an SOD/catalase mimetic (Day et al., 1997), 20 μM; Calbiochem), or polyethylene glycol (PEG) conjugated catalase Beckman et al., 1988) (40 units/ml; Sigma), or the protein degradation inhibitors (Folimycin Huss and Wieczorek, 2009) for lysosomes, 50 nM; Clastolactacystin β-lactone (Dick et al., 1996) for proteasomes, 1 μM; Calbiochem) were added 0.5 or 2 h, respectively, before exposures.

NEP in human PA SMCs = molecular target: T1, NEP in human PA SMCs (Homo sapiens, UniProt P08473); assay: NEP catalytic activity in human PA SMCs (fluorometric); assay type: cell-based; details: for prevention of H2O2-induced decreases in PA SMC NEP activity: antioxidant added 0.5 h before 4 h H2O2 (100 μM), MnTMPyp 20 μM, PEG-catalase 40 units/ml
T1 construct: host or cells: primary human PA SMCs, passages 6-10
Procedure: as §1, §2

T1 sequence (P08473 whole entry): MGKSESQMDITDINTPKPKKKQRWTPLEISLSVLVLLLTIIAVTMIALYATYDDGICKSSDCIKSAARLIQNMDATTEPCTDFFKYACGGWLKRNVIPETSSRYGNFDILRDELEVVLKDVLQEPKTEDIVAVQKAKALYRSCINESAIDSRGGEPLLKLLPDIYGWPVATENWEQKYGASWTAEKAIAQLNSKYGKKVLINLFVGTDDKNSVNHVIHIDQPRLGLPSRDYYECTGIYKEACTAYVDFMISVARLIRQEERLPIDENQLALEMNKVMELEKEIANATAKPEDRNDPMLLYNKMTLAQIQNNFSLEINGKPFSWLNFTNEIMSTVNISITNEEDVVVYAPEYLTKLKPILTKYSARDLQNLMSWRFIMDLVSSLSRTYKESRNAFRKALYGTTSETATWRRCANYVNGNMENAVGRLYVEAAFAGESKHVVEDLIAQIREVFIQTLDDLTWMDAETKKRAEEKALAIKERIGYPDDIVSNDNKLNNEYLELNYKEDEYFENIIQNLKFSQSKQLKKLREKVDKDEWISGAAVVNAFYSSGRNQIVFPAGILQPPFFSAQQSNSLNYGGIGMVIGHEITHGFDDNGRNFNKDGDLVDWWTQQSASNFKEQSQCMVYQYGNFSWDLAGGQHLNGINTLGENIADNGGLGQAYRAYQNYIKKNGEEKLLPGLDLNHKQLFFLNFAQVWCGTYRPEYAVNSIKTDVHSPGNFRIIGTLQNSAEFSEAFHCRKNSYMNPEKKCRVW
Sequence of NEP activity in ‘Control’ human lung homogenates (P08473 whole entry): as above
Sequence of recombinant human NEP (P08473 whole entry): as above

Molecule: OO [H2O2, hydrogen peroxide]
- inhibition at 100 µM (recombinant human NEP): 68%
- inhibition at 100 µM [1]: 38%
- effect on NEP mRNA expression ([2]; 100 μM H2O2, 48 h): did not significantly decrease
- transient decrease in NEP mRNA ([2]; after 4 h exposure to H2O2, preliminary experiments): 40%
- NEP activity after exposure, without Tiron (NEP in human PA SMCs; 4 h exposure, CSE 5 μg/ml, H2O2 100 μM): significantly decreased

Molecule: O=S(=O)(O)c1cc(O)c(O)c(S(=O)(=O)O)c1 [Tiron]
- prevention of decreases in NEP activity due to CSE, hypoxia or H2O2 (NEP in human PA SMCs; Tiron 2.5 mM, 0.5 h before and throughout 4 h exposure): prevented
- NEP activity under normoxia with Tiron vs normoxia alone (NEP in human PA SMCs; Tiron 2.5 mM, normoxia): did not differ significantly
- prevention of H2O2-induced decreases in PA SMC NEP activity (NEP in human PA SMCs; Tiron 2.5 mM): prevented

Molecule: MnTMPyp
- prevention of H2O2-induced decreases in PA SMC NEP activity (NEP in human PA SMCs; Tiron 2.5 mM): prevented

B1: PEG-catalase: polyethylene glycol (PEG) conjugated catalase, antioxidant (conjugate, UniProt P00432 2-527, looked up)
Catalase: ADNRDPASDQMKHWKEQRAAQKPDVLTTGGGNPVGDKLNSLTVGPRGPLLVQDVVFTDEMAHFDRERIPERVVHAKGAGAFGYFEVTHDITRYSKAKVFEHIGKRTPIAVRFSTVAGESGSADTVRDPRGFAVKFYTEDGNWDLVGNNTPIFFIRDALLFPSFIHSQKRNPQTHLKDPDMVWDFWSLRPESLHQVSFLFSDRGIPDGHRHMNGYGSHTFKLVNANGEAVYCKFHYKTDQGIKNLSVEDAARLAHEDPDYGLRDLFNAIATGNYPSWTLYIQVMTFSEAEIFPFNPFDLTKVWPHGDYPLIPVGKLVLNRNPVNYFAEVEQLAFDPSNMPPGIEPSPDKMLQGRLFAYPDTHRHRLGPNYLQIPVNCPYRARVANYQRDGPMCMMDNQGGAPNYYPNSFSAPEHQPSALEHRTHFSGDVQRFNSANDDNVTQVRTFYLKVLNEEQRKRLCENIAGHLKDAQLFIQKKAVKNFSDVHPEYGSRIQALLDKYNEEKPKNAVHTYVQHGSHLSAREKANL
modifications: PEG conjugated
notes: polyethylene glycol (PEG) conjugated catalase, antioxidant
- prevention of H2O2-induced decreases in PA SMC NEP activity (NEP in human PA SMCs; Tiron 2.5 mM): prevented
